Measured values as given in PubChem BioAssay (NCI).
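GI50 = concentration required for 50% inhibition of growth. TGI marks complete inhibition of growth.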

Experiments:
Experiment in all cases: NCI anticancer screen, dose series, 384-well format
MALME-3M melanoma = tested on: MALME-3M melanoma
786-0 renal = tested on: 786-0 renal
NCI-H522 lung = tested on: NCI-H522 lung
NCI-H23 lung = tested on: NCI-H23 lung
A549 NSCLC = tested on: A549 NSCLC
TK-10 renal = tested on: TK-10 renal
UO-31 renal = tested on: UO-31 renal
NCI-H460 NSCLC = tested on: NCI-H460 NSCLC
HOP-62 NSCLC = tested on: HOP-62 NSCLC
UACC-62 melanoma = tested on: UACC-62 melanoma
HCC-2998 colon = tested on: HCC-2998 colon
SNB-75 CNS = tested on: SNB-75 CNS
A498 renal = tested on: A498 renal
SF-539 CNS = tested on: SF-539 CNS
UACC-257 melanoma = tested on: UACC-257 melanoma
HT29 colon = tested on: HT29 colon
SF-295 CNS = tested on: SF-295 CNS
KM12 colon = tested on: KM12 colon
HOP-92 NSCLC = tested on: HOP-92 NSCLC
HL-60(TB) leukemia = tested on: HL-60(TB) leukemia
LOX IMVI melanoma = tested on: LOX IMVI melanoma
COLO 205 colon = tested on: COLO 205 colon
PC-3 prostate = tested on: PC-3 prostate
EKVX NSCLC = tested on: EKVX NSCLC
DU-145 prostate = tested on: DU-145 prostate
SF-268 CNS = tested on: SF-268 CNS
M14 melanoma = tested on: M14 melanoma
MOLT-4 leukemia = tested on: MOLT-4 leukemia
CCRF-CEM leukemia = tested on: CCRF-CEM leukemia
SW-620 colon = tested on: SW-620 colon
OVCAR-5 ovarian = tested on: OVCAR-5 ovarian
SK-MEL-5 melanoma = tested on: SK-MEL-5 melanoma
RXF 393 renal = tested on: RXF 393 renal
OVCAR-4 ovarian = tested on: OVCAR-4 ovarian
ACHN renal = tested on: ACHN renal
SN12C renal = tested on: SN12C renal
CAKI-1 renal = tested on: CAKI-1 renal
MCF7 breast = tested on: MCF7 breast
HCT-116 colon = tested on: HCT-116 colon
NCI-H322M lung = tested on: NCI-H322M lung
IGROV1 ovarian = tested on: IGROV1 ovarian
SK-OV-3 ovarian = tested on: SK-OV-3 ovarian
U251 glioblastoma = tested on: U251 glioblastoma
MDA-MB-468 breast = tested on: MDA-MB-468 breast
HS 578T breast = tested on: HS 578T breast
RPMI-8226 leukemia = tested on: RPMI-8226 leukemia
HCT-15 colon = tested on: HCT-15 colon
SK-MEL-28 melanoma = tested on: SK-MEL-28 melanoma
BT-549 breast = tested on: BT-549 breast
NCI-H226 lung = tested on: NCI-H226 lung
OVCAR-3 ovarian = tested on: OVCAR-3 ovarian
MDA-MB-231 breast = tested on: MDA-MB-231 breast
SR leukemia = tested on: SR leukemia
SNB-19 CNS = tested on: SNB-19 CNS
OVCAR-8 ovarian = tested on: OVCAR-8 ovarian
T-47D breast = tested on: T-47D breast
NCI/ADR-RES ovarian = tested on: NCI/ADR-RES ovarian
MDA-MB-435 melanoma = tested on: MDA-MB-435 melanoma

## C[C@H](Nc1ncnc2nc[nH]c12)c1cc2cccc(Cl)c2c(=O)n1-c1ccccc1
MALME-3M melanoma
  GI50: 6.18 µM
  TGI: 49.8 µM
786-0 renal
  GI50: 2.8 µM
  TGI: > 64.9 µM
NCI-H522 lung
  GI50: 16.8 µM
  TGI: > 83.3 µM
NCI-H23 lung
  GI50: 25.9 µM
  TGI: > 100 µM
A549 NSCLC
  GI50: 14.5 µM
  TGI: > 90.4 µM
TK-10 renal
  GI50: 15 µM
  TGI: > 100 µM
UO-31 renal
  GI50: 3.89 µM
  TGI: > 93.1 µM
NCI-H460 NSCLC
  GI50: 15.9 µM
  TGI: > 100 µM
HOP-62 NSCLC
  GI50: 30.7 µM
  TGI: > 100 µM
UACC-62 melanoma
  GI50: 5.86 µM
  TGI: > 64.2 µM
HCC-2998 colon
  GI50: 29.7 µM
  TGI: 92.1 µM
SNB-75 CNS
  GI50: 0.103 µM
  TGI: 2.41 µM
A498 renal
  GI50: 1.09 µM
  TGI: 12.8 µM
SF-539 CNS
  GI50: 19.7 µM
  TGI: > 100 µM
UACC-257 melanoma
  GI50: 27 µM
  TGI: > 100 µM
HT29 colon
  GI50: 18.8 µM
  TGI: > 100 µM
SF-295 CNS
  GI50: 4.95 µM
  TGI: > 40.2 µM
KM12 colon
  GI50: 43.2 µM
  TGI: > 100 µM
HOP-92 NSCLC
  GI50: 2.31 µM
  TGI: 77.7 µM
HL-60(TB) leukemia
  GI50: 3.53 µM
  TGI: > 36.4 µM
LOX IMVI melanoma
  GI50: 32.5 µM
  TGI: > 100 µM
COLO 205 colon
  GI50: 42.8 µM
  TGI: > 100 µM
PC-3 prostate
  GI50: 1.46 µM
  TGI: > 79.5 µM
EKVX NSCLC
  GI50: 15.2 µM
  TGI: > 100 µM
DU-145 prostate
  GI50: 24.6 µM
  TGI: > 100 µM
SF-268 CNS
  GI50: 24.7 µM
  TGI: > 84.7 µM
M14 melanoma
  GI50: 23.9 µM
  TGI: > 100 µM
MOLT-4 leukemia
  GI50: 2.37 µM
  TGI: 12.5 µM
CCRF-CEM leukemia
  GI50: 4.6 µM
  TGI: 90.7 µM
SW-620 colon
  GI50: > 100 µM
  TGI: > 100 µM
OVCAR-5 ovarian
  GI50: 32.9 µM
  TGI: > 100 µM
SK-MEL-5 melanoma
  GI50: 18.2 µM
  TGI: > 85.1 µM
RXF 393 renal
  GI50: 0.104 µM
  TGI: 1.3 µM
OVCAR-4 ovarian
  GI50: 11.4 µM
  TGI: 90.6 µM
ACHN renal
  GI50: 16.8 µM
  TGI: > 100 µM
SN12C renal
  GI50: 3.25 µM
  TGI: > 100 µM
CAKI-1 renal
  GI50: 4.09 µM
  TGI: > 80 µM
MCF7 breast
  GI50: 4.31 µM
  TGI: > 100 µM
HCT-116 colon
  GI50: 28.7 µM
  TGI: > 100 µM
NCI-H322M lung
  GI50: 15.5 µM
  TGI: > 72 µM
IGROV1 ovarian
  GI50: 2.43 µM
  TGI: 10.2 µM
SK-OV-3 ovarian
  GI50: 14.3 µM
  TGI: > 79.2 µM
U251 glioblastoma
  GI50: 47.3 µM
  TGI: > 100 µM
MDA-MB-468 breast
  GI50: 1.23 µM
  TGI: 14.9 µM
HS 578T breast
  GI50: 3.41 µM
  TGI: 27.7 µM
RPMI-8226 leukemia
  GI50: 25.2 µM
  TGI: > 78.7 µM
HCT-15 colon
  GI50: 35.2 µM
  TGI: > 100 µM
SK-MEL-28 melanoma
  GI50: 8.44 µM
  TGI: 98.8 µM
BT-549 breast
  GI50: 1.29 µM
  TGI: 36.6 µM
NCI-H226 lung
  GI50: 33.4 µM
  TGI: > 100 µM
OVCAR-3 ovarian
  GI50: 3.65 µM
  TGI: > 48.4 µM
MDA-MB-231 breast
  GI50: 25.5 µM
  TGI: > 100 µM
SR leukemia
  GI50: 14 µM
  TGI: 40.1 µM
SNB-19 CNS
  GI50: 44.5 µM
  TGI: > 100 µM
OVCAR-8 ovarian
  GI50: 25.8 µM
  TGI: > 100 µM
T-47D breast
  GI50: 1.6 µM
  TGI: 17.6 µM
NCI/ADR-RES ovarian
  GI50: > 100 µM
  TGI: > 100 µM
MDA-MB-435 melanoma
  GI50: > 100 µM
  TGI: > 100 µM
